Here are results for two compounds from US6403637B1, “Methods of modulating matrix metalloproteinase activity and uses thereof” (priority 1999, dated 2002).

Assay [1] deals with human chondrocytes. As to the kind of experiment: Binding of 125I collagenase-3 to human chondrocytes. The settings on record: osteoarthritis chondrocytes, 10 μM b.i.d. for three days; p<0.05. As to the method: (§1) For all binding experiments, cells were seeded into 2.0 cm^2 wells. After the cells reached approximately 95% confluence, the medium was replaced with fresh medium containing 1 mg/ml BSA and the cells were assayed for binding 4 h later. The cells were first washed with maintenance medium, then incubated in the same medium with 0.01% Tween 80 containing ^125I-rat collagenase-3 or other iodinated ligands at 4° C. for 2 h. Non-specific binding was assessed by adding a 50-100-fold excess of cold ligand to half the wells, while an equivalent volume of buffer was added to the remaining wells. After incubation, the wells were washed three times with ice-cold MEM (0.5 ml). The cells were then lysed with 500 μl of 1 M NaOH and the lysates were counted on a gamma counter. Protein labeling with ^125I was done using the chloramine T method (Greenwood et al., 1963, Biochem. J. 89:114). The proteins had specific activities ranging from 9 to 27 μCi/μg.
(§2) Human tissue (articular cartilage and synovium) was obtained at surgery or autopsy and was prepared as follows. Tissue was minced in a laminar flow hood, then incubated in sterile filtered serum-free Dulbecco's modified Eagle's medium (50 ml) containing trypsin (0.25%) for 1 h at 37° C. on an orbital shaker. […]

For assay [2], the system named is human chondrocytes. The assay is described as follows: Excretion of degraded (TCA-soluble) 125I-collagenase-3 from human chondrocytes. The class given is cell-based. How it is done: (§3) Excretion of degraded matrix metalloproteinase is preferably evaluated by performing steps (a) through (e) of the internalization assay described above, collecting the media overlying the cells after incubating for 15 min to I hr, precipitating intact proteins from the collected media (e.g., incubating for 2 hr with 20% trichloroacetic acid in ethanol and 2% bovine serum albumin), pelleting the precipitated intact proteins, and measuring the label in the supernatant (e.g., by gamma counting ^125I).
as §2
(§4) As receptor-mediated processing of collagenase-3 culminates in lysosomal degradation and extracellular release of the ligand, binding and degradation assays as above were performed and measured the presence of degraded (TCA-soluble) ^125I-collagenase-3 in the media overlying cells. […]

The subject of assay [3] is UMR 106-01 cells. As to the kind of experiment: Competition for 125I collagenase-3 binding in UMR 106-01 cells. Also on record: species or system rat. The settings on record: 125I-rat collagenase-3. As to the method: as §1
These proteins were used as competitors in a series of binding assays in UMR cells using ^125I mouse collagenase-3. Radioactive labeling and binding assays were performed as in Example 1.

For assay [4], the system named is UMR 106-01 cells. As to the kind of experiment: Internalization assay in UMR 106-01 cells. Set-up: reduction of intracellular accumulation of 125I-collagenase: dose or concentration left out as unconfirmed. In kind it is cell-based, rat. As to the method:
(§5) Although the low density lipoprotein receptor-related protein is not required for rat collagenase-3 binding to the cell, it might be required for ligand internalization. Therefore, internalization assays were performed with ^125I-rat collagenase-3 using MEF-1 and MEF-2 cells as follows. After binding 125I-rat labeled proteins as above, the cells were washed three times with cold modified Eagle's media (0.5 ml) to remove unbound ligand. The cells were then warmed to 37° C. by the addition of prewarmed modified Eagle's media (0.25 ml), and incubated at 37° C. for selected intervals. At each time point, the media were collected, and the cells were washed once with ice-cold MEM, then incubated with 0.25% Pronase®-E in modified Eagle's media for 15 min at 4° C. to strip cell surface proteins. The cell suspension was then centrifuged, and the radioactivity associated with cell pellets (defining internalized ^125I-proteins) was measured at each time point.
It is known that RAP inhibits internalization of ligands by the low density lipoprotein receptor-related protein (Kounnas et al., 1996, J. Biol. Chem 271:6523). Therefore, internalization assays were performed using ^125I-labeled rat collagenase-3 as a ligand and receptor-associated protein as a competitor. Human receptor-associated protein from the pGEX-receptor-associated protein expression vector (provided by Dr. Joachim Herz, University of Texas Southwestern Medical Center, Dallas, Tex.) was expressed in bacteria and prepared as described in Herz et al., 1991, J. Biol. Chem. 266:21232.
To investigate the mechanism by which RAP regulates internalization of collagenase-3, an experiment was performed where excess unlabeled RAP or rat collagenase-3 was prebound to UMR 106-01 cells. Binding and internalization of ^125I-labeled rat collagenase-3 and RAP were then allowed to proceed.

For another assay, the system named is normal rat osteoblasts. As to the kind of experiment: Internalization of 125I-rat collagenase-3 in normal rat osteoblasts. The class given is cell-based. Set-up: reduction of intracellular accumulation of 125I-collagenase: dose or concentration left out as unconfirmed. How it is done:
Previous work has shown that the rat collagenase-3 endocytosis receptor system is present on UMR 106-01 rat osteosarcoma cells (Omura et al, 1994, J. Biol. Chem. 269:24994). To determine whether the receptor is present in other cells, several cell types were tested for their ability to bind rat collagenase-3. These cell types were normal rat osteoblasts, rat embryo fibroblasts, the rat epithelial breast carcinoma cell line BC-1, mouse NIH 3T3 fibroblasts, the human osteosarcoma cell line SAOS-2, and the rat osteosarcoma cell lines ROS 17/2.8 and UMR 106-01. The human osteosarcoma cell line SAOS-2 (ATCC HTB 85) and the mouse embryo fibroblast cell line NIH 3T3 (ATCC CRL 1658) were cultured according to recommendations of the American Type Culture Collection, Rockville, Md. UMR 106-01 rat osteosarcoma cells were cultured as described in Roswit et al., 1992, Arch. Biochem. Biophys. […]
Although the low density lipoprotein receptor-related protein is not required for rat collagenase-3 binding to the cell, it might be required for ligand internalization. […] The cell suspension was then centrifuged, and the radioactivity associated with cell pellets (defining internalized ^125I-proteins) was measured at each time point.
The ability of receptor-associated protein to inhibit internalization of ^125I-rat collagenase-3 in UMR 106-01 osteoblastic cells and normal rat osteoblasts was determined next. […]

In assay [5] the test system is human chondrocytes. The assay is described as follows: Internalization of 125I collagenase-3 by human chondrocytes. The following applies: p<0.001. In kind it is cell-based. As to the method: as §5
Human tissue (articular cartilage and synovium) was obtained at surgery or autopsy and was prepared as follows. […]
To determine whether the decreased collagenase-3 binding in osteoarthritis tissues correlated with reduced receptor function, the amount of ^125I collagenase which was internalized by osteoarthritis and control chondrocytes was determined as described in Example 1. […]

The next assay deals with synoviocytes. As to the kind of experiment: Internalization of 125I collagenase-3 by human synoviocytes. In kind it is cell-based. The following applies: compared to chondrocytes. How it is done:
as §5, §2

Another assay relates to human synoviocytes. As to the kind of experiment: Excretion of degraded (TCA-soluble) 125I-collagenase-3 from human synoviocytes. The class given is cell-based. As to the method:
as §3, §2, §4

Setting [6] is: 3 nM 125I-rat collagenase-3 + 100 nM RAP, mean ± SEM, triplicate.

Take `CC[C@H](C)C(=O)O[C@H]1C[C@H](O)C=C2C=C[C@H](C)[C@H](CC[C@@H](O)C[C@@H](O)CC(=O)[O-])[C@H]21.[Na+]` [pravastatin, Pravastatin sodium]: the “increase in collagenase-3 binding” value in the assay on human chondrocytes [1] is reported as 30%. In the assay with human chondrocytes [2] (osteoarthritis chondrocytes, 10 μM b.i.d. for three days, p<0.02), the “enhancement of excretion of degraded collagenase-3” value is on record as “over 320%”.

Regarding “RAP: human receptor-associated protein expressed in bacteria from the pGEX expression vector; inhibits ligand internalization by LRP”, the “competition with / inhibition of 125I-rat collagenase-3 binding (in words)” value with UMR 106-01 cells [3] was “does not inhibit”. Further, the “% of maximum internalization, UMR 106-01 rat osteoblasts” value in the assay on UMR 106-01 cells [4] (setting [6]) came to 20.84 ± 1.98%. For the same compound, in the assay with UMR 106-01 cells [4] (FIG. 10, increasing concentrations of RAP), the “inhibition of internalization of 125I-rat collagenase-3” value is “approximately 70%”. Further, the “effect of prebound excess unlabeled protein on rat collagenase-3 internalization” value in the assay on UMR 106-01 cells [4] (prebound to cells) is reported as “inhibited”. Also, the “reduction of intracellular accumulation of 125I-collagenase” value in the assay with UMR 106-01 cells [4] (receptor-associated protein in binding medium) is listed as 79%; in the assay on normal rat osteoblasts (receptor-associated protein in binding medium, normal mineralizing rat osteoblasts), 43%. The “% of maximum internalization, Normal rat osteoblasts” value in the assay with normal rat osteoblasts (setting [6]) is 56.99 ± 4.49%. Further, the “inhibition of collagenase-3 internalization” value with human chondrocytes [5] (control chondrocytes) worked out at 88.2%. In addition, the “reduction of collagenase-3 internalization” value in the assay on human chondrocytes [5] (osteoarthritis chondrocytes) came out at 74.3%. The “inhibition of collagenase-3 internalization (in words)” value with synoviocytes is “similar”. In addition, the “effect on excretion of collagenase-3 (in words)” value in the assay on human chondrocytes [2] (chondrocytes) and in the assay on human synoviocytes was “inhibited” each time.
